Results as given in PMC6097915 (ACS chemical biology, 2018).
Converted amounts (≈) assume the structure as drawn. Ends that are not written are not given here.

Tested on: WT MG1655 E. coli
Format: cell-based
Settings: 6-hr period, aerated EZRDM medium, 30°C, by OD, successive two-fold dilutions in 96 well plates

| Compound | MIC (minimum inhibitory concentration) |
| --- | --- |
| CC[C@H](C)[C@H](NC(=O)[C@H](CCCCN)NC(=O)[C@H](CCC(=O)O)NC(=O)[C@H](CCCCN)NC(=O)[C@H](CO)NC(=O)[C@H](CCCCN)NC(=O)[C@H](CCCNC(=N)N)NC(=O)[C@H](Cc1ccccc1)NC(=O)[C@H](Cc1ccccc1)NC(=O)[C@H](CC(=O)O)NC(=O)CNC(=O)[C@H](CC(C)C)NC(=O)[C@@H](N)CC(C)C)C(=O)NCC(=O)N[C@@H](CCCCN)C(=O)N[C@@H](CCC(=O)O)C(=O)N[C@@H](Cc1ccccc1)C(=O)N[C@@H](CCCCN)C(=O)N[C@@H](CCCNC(=N)N)C(=O)N[C@H](C(=O)N[C@H](C(=O)N[C@@H](CCC(N)=O)C(=O)N[C@@H](CCCNC(=N)N)C(=O)N[C@H](C(=O)N[C@@H](CCCCN)C(=O)N[C@@H](CC(=O)O)C(=O)N[C@@H](Cc1ccccc1)C(=O)N[C@@H](CC(C)C)C(=O)N[C@@H](CCCNC(=N)N)C(=O)N[C@@H](CC(N)=O)C(=O)N[C@@H](CC(C)C)C(=O)N[C@H](C(=O)N1CCC[C@H]1C(=O)N[C@@H](CCCNC(=N)N)C(=O)N[C@H](C(=O)N[C@@H](CCC(=O)O)C(=O)N[C@@H](CO)C(=O)O)[C@@H](C)O)C(C)C)[C@@H](C)CC)C(C)C)[C@@H](C)CC [LL-37] | 4 µM (≈ 18 µg/mL) |
| KWKLFKKIGAVLKVL-NH2 [CM15] | 5 µM |
| KWKLFKKIEKVGQNIRDGII-KAGPAVAVVGQATQIAK-NH2 [Cecropin A] | 0.9 µM |
